Earlier results as cited in patent US6783772B1, “Pharmaceutical preparations containing alendronate sodium” (priority 2003, dated 2004).

Legend:
[1] = system: bone resorption; details: postmenopausal women; 5, 20 and 40 mg daily oral for six weeks
[2] = system: bone resorption; details: 40 mg once daily for six months

## NCCCC(O)(P(=O)([O-])O)P(=O)(O)O.O.O.O.[Na+] [Alendronate sodium, (4-amino-1-hydroxybutylidene) bisphosphonic acid monosodium salt trihydrate]
[1]
  biochemical changes (urinary calcium, urinary markers of bone collagen degradation): dose-dependent inhibition of bone resorption
[2]
  serum alkaline phosphotase and urinary markers of bone collagen degradation: highly significant decreases
[2]; clinical trials
  serum calcium phosphate: generally mild, transient, decreases
